{
  "source": "patent US20250161309A1",
  "about": "“TOPICAL COMPOSITIONS AND USES THEROF” (TOPADUR PHARMA AG, priority 2022, published 2025)",
  "key": {"[1]": {"tested_on": "C57BL/6 mouse model of alopecia", "assay": "Topical administration and hair growth in C57BL/6 mouse model of alopecia (telogen phase, clipped dorsal skin)", "type": "in vivo", "conditions": "female mice", "text": "Dorsal hair of C57BL/6 mouse is known to have a time synchronized hair cycle. From about 18-21 days of age (2-3 weeks old) and 47-95 days of age (6-14 weeks old), the dorsal hair are in the telogen/quiescent phase (visually pink skin) [Lee B H, Lee J S, Kim Y C. Hair growth-promoting effects of lavender oil in C57BL/6 mice. Toxicol Res. (2016) 32(2):103-108; Choi H I, Kang B M, Jang J, Hwang S T, Kwon O. Novel effect of sildenafil on hair growth. Biochem Biophys Res Commun. (2018) 505(3):685-691]. C57BL/6 mouse therefore is a well-established model for studying hair growth promotion.\nMale and female C57BL/6 mice of 6 to 9 weeks of age in stable telogen phase of hair growth cycle were used (obtained from Vivo Bio Tech Ltd, Telangana, India).\n50 μL of a clear solution of respective 0.02%, 0.002% and 0.0002% (w/v) concentrations of Cpd 1 in the corresponding vehicle (PEG-400:EtOH/7:3) (PEG-400: Central Drug House Ltd. Dehli, India; Ethanol: Changshu Hongsheng fine chemicals Co. Ltd. China) and the positive control, 2% solution (female) or 5% (male) (w/v) Minoxidil (Chemieliva, China) in the corresponding vehicle (PEG-400:EtOH/7:3) were topically applied to the clipped area on the dorsal back of the mice. The solutions covered a circular area of approximately 2 cm^2. The treatment regimen was twice daily application for 5 days/week for total of 4 weeks.\nThe selected animals on day 1 weighted on average 20.05 g±0.17 ranging from 19.8 to 20.2 g. The hair on the dorsal back (approx. 4×4 cm^2) of these animals were clipped without touching the skin of the animal, using an electric clipper, on day 0 before the treatment with Cpd 1 and the hair was collected. The treatment followed by visual analysis for anagen onset, skin color change and appearance of any hair growth were monitored. After completion of the experiment, the dorsal skin of all the animals was removed and visual melanogenesis was reported. The skin sections were then preserved in 10% formalin solution for further histopathology analysis.\nAnimals were observed during 30 days and the hair growth score was recorded on daily basis. The criteria for scoring of hair growth is as follows: no hair growth, pink skin—score 0; skin colour changes from pink to grey/light grey without visible hair growth—score 0.5 onset of anagen (skin colour changes from grey/light grey to dark grey/black without visible hair growth)—score 1; sparse hair growth—score 1.5; diffuse short hair growth—score 2, moderate hair growth—score 2.5 and dense, normal coat hair—score 3 (Lee B H, Lee J S, Kim Y C. Hair growth-promoting effects of lavender oil in C57BL/6 mice. Toxicol Res. (2016) 32(2):103-108).\nPhotographs of the animals were captured before the initiation and during the course of the study.\n(§1) After completion of the experiments all animals were sacrificed by euthanasia (Choi H I, Kang B M, Jang J, Hwang S T, Kwon O. Novel effect of sildenafil on hair growth. Biochem Biophys Res Commun. (2018) 505(3):685-691). The dorsal skin of each animal was then removed by peeling. The peeled skin was spread and checked visually for the induction of melanogenesis indicated by visual blackening on the reverse side of the skin. The skin samples were evenly spread on a pre-labelled glass slide and kept in 10% formalin until further use. Later, the skin samples were embedded in paraffin and sectioned at 5 microns using a microtome and the corresponding slides per animal were prepared. The slides obtained were used for Haematoxylin & Eosin (H&E) staining and in the transverse and longitudinal sections' photomicrographs data, the total number of follicles in the dermis and the sub cutis were determined for each animal. The skin thickness was measured using Image J 1.44 software.\nThe statistical analyses were performed using GraphPad Prism 9.0.0 software. Statistical significance was determined by One-way or Two-Way ANOVA followed by Tukey's multiple comparison test. […]"}, "[2]": {"tested_on": "C57BL/6 mouse model for chemotherapy-induced alopecia (CIA)", "assay": "Preventive C57BL/6 mouse model of cyclophosphamide (chemotherapy)-induced alopecia (CIA), topical administration", "type": "in vivo", "conditions": "female mice, 2% Minoxidil", "procedure": "Female C57BL/6 mice (Vivo Bio Tech Ltd, Telangana, India) of 6 to 9 weeks of age in stable telogen phase of hair growth cycle were used.\n100 μL of a clear solution of respective 0.0004%, 0.002% (w/v) concentrations of Cpd 1 in the corresponding vehicle (PEG-400:EtOH/7:3) (PEG-400: Central Drug House Ltd. Dehli, India; Ethanol: Changshu Hongsheng fine chemicals Co. Ltd. China) and the positive control, 2% solution (w/v) Minoxidil (Chemieliva, China) in the corresponding vehicle (PEG-400:EtOH/7:3) were topically applied to the depilated area on the dorsal back of female mice. The solutions covered a circular area of approximately 4 cm^2. The treatment regimen was twice daily for 7 days before Cyclophosphamide injection and afterwards for 3 weeks.\nAnimals (female) on day 1 weighted on average 18.8 g+0.2 ranging from 18.5 to 19.3 g. The animals were exposed by gentle clipping of hair from the dorsal back using an electric clipper. The following day, animals with clear skin were depilated using a depilatory cream. To evaluate the preventive potential of Cpd 1 in the chemotherapy-induced alopecia mouse model, animals were treated topically with 0.0004% and 0.002% Cpd 1, 2% Minoxidil and vehicle from day 1 onwards on the dorsal depilated skin with twice daily application regimen until day 10, when all the animals have attained the anagen stage. On day 11 after depilation, no application of the Cpd 1 or vehicle was done. This was considered a wash-out period. On day 12 after depilation, the animals were given intraperitoneal injection of cyclophosphamide (CYP-HiMedia Laboratories, Mumbai, India) at the dose of 150 mg/kg body weight. One day of wash-out period was given to the animals before restarting the treatment with Cpd 1. The treatment regimen was reinitiated with 0.0004% and 0.002% Cpd 1, 2% Minoxidil and vehicle in the respective groups for further 3 weeks. All the animals were observed from day 1 (experiment start) till day 30 (experiment termination and animal sacrifice day) and the hair growth score was recorded on a daily basis. The criteria for scoring of hair growth is as follows: no hair growth, pink skin—score 0; skin colour changes from pink to grey/light grey without visible hair growth—score 0.5; onset of anagen (skin colour changes from grey/light grey to dark grey/black without visible hair growth)—score 1; sparse hair growth—score 1.5; diffuse short hair growth—score 2, moderate hair growth—score 2.5 and dense, normal coat hair—score 3 (Lee B H, Lee J S, Kim Y C. Hair growth-promoting effects of lavender oil in C57BL/6 mice. Toxicol Res. (2016) 32(2):103-108). Photographs of the animals were captured before the initiation and during the course of the study. […]\nas §1, with “software. […]” for “software.”"}},
  "data": [
    {"compound": "CCCOc1ccc(S(=O)(=O)N2CCN(CCO[N+](=O)[O-])CC2)cc1-c1nc2c(CCC)cn(CC)c2c(=O)[nH]1", "note": "[Cpd 2, 2-(4-((3-(5-ethyl-4-oxo-7-propyl-4,5-dihydro-3H-pyrrolo[3,2-d]pyrimidin-2-yl)-4-propoxyphenyl)sulfonyl)piperazin-1-yl)ethyl nitrate]", "values": [
      {"measurement": "number of follicles in the subcutis layer of the skin and total follicle counts compared to control group", "setting": "[1]", "result": "considerable higher number"},
      {"measurement": "animals with visual melanogenesis in peeled skin", "setting": "[1]; 0.002% (w/v), end of study", "result": "1/5"},
      {"measurement": "skin thickness compared to vehicle and 2% Minoxidil groups", "setting": "[1]; 0.02% (w/v)", "result": "increased"},
      {"measurement": "animals with visual melanogenesis in peeled skin", "setting": "[1]; 0.02% (w/v), end of study", "result": "1/5"},
      {"measurement": "anagen hair follicles (histology, H&E) compared to control groups", "setting": "[1]; Cpd 2-treated groups", "result": "more"},
      {"measurement": "area of black skin compared to control groups", "setting": "[1]; at day 30", "result": "larger"},
      {"measurement": "adverse effects in relation to general health or body weight", "setting": "[1]; topical twice daily, 5 days/week, 4 weeks, compared to vehicle group", "result": "No adverse effects"},
      {"measurement": "day of skin colour change from pink to light grey (transition from telogen to anagen phase)", "setting": "[1]; treated group 2 (Table 2: 0.002% (w/v)), after hair growth induction", "result": 10, "unit": "day"},
      {"measurement": "hair growth score among treatment groups", "setting": "[1]; treated group 2 (Table 2: 0.002% (w/v)), at day 30, followed by low dose groups and Minoxidil group", "result": "maximal"},
      {"measurement": "hair growth (score) compared to 2% Minoxidil", "setting": "[1]; treated group 2 (Table 2: 0.002% (w/v)), at days 25, 29 and 30", "result": "significant increase"},
      {"measurement": "hair growth (score) compared to vehicle", "setting": "[1]; treated group 2 (Table 2: 0.002% (w/v), Composition A5), from day 23 on", "result": "significantly higher"},
      {"measurement": "hair growth compared to vehicle group", "setting": "[1]; treated group 3 (Table 2: 0.02% (w/v), Composition A6), at day 29 and 30", "result": "significantly higher"}
    ]},
    {"compound": "Nc1cc(N2CCCCC2)nc(N)[n+]1[O-]", "note": "[Minoxidil, 2,4-diamino-6-piperidinopyrimidine-3-oxide, reference compound]", "values": [
      {"measurement": "animals with complete hair growth (hair growth score of 3)", "setting": "[2]", "result": "3/7"},
      {"measurement": "animals with moderate hair growth (hair growth score of 2-2.5)", "setting": "[2]", "result": "4/7"},
      {"measurement": "attainment of hair growth compared to vehicle", "setting": "[2]", "result": "faster attainment"},
      {"measurement": "depth and development of dermal papilla and long hair shaft of hair follicles observed (longitudinal skin sections)", "setting": "[2]", "result": "majority of the animals"},
      {"measurement": "thickness of the skin compared to vehicle group", "setting": "[2]", "result": "slightly increase"},
      {"measurement": "mice with visual melanogenesis in peeled skin", "setting": "[2]; end of study", "result": "7/7"},
      {"measurement": "Ki-67 score (positive cells near the follicular region, semi-quantitative grading)", "setting": "[2]; vehicle 0.4", "result": 1.1},
      {"measurement": "CD-31 mean score (perifollicular angiogenesis, semi-quantitative grading)", "setting": "[2]; vehicle group 0.8", "result": 1.4},
      {"measurement": "visual melanogenesis in peeled skin", "setting": "[1]; positive control 2% (w/v) Minoxidil, end of study", "result": "No visual melanogenesis"}
    ]}
  ]
}
